The source of these data is patent US4551538A, “Phenylpyrazolidine acetic acid derivatives” (American Home Products Corporation, priority 1984, dated 1985).

In test [1] the test system is urate-induced canine synovitis. Briefly: urate-induced canine synovitis test. Particulars: Canis lupus familiaris; oral, 2 h after urate; read-out: Oral ED50. The format is in vivo, dog (mongrel). How it is done:
In this procedure, healthy mongrel dog of either sex weighing between 14-20 kg are adapted to a measuring platform. […] A Hewlett Packard 75C computer then converts voltage into kilogram units (mean pressure reading for 1 minute). This control pressure represents the 100% value in this procedure. Synovitis is induced by injecting 5 mg of sodium urate crystals (5-15μ in length) in 1 ml of 0.9% saline solution into the synovial space of the right or left knee. Readings are taken at 1, 2, 2.5, 3, 3.5, 4, 4.5 and 5 hours after urate administration and calculated as a percentage of control hind paw pressure. […] Dogs are used only once in these experiments to prevent tolerance.
Each dog is placed on the pressure measuring apparatus with its left or right hind paw centered above the load cell, and pressure readings are recorded for one minute. Two or three control readings are averaged and represent control paw pressure. Single pressure readings are taken after sodium urate injection.
Drug effects are expressed as a percentage of control paw pressure which is calculated as follows:
Test reading/Control reading×100
Test reading=Pressure measurement after sodium urate injection and drug or no drug (blank capsule).
Control reading=Mean pressure measurement before sodium urate injection.
A one-way analysis of variance with Dunnett's comparisons to control (α=0.05 and 0.01) was used to determine statistical significance.

A further test relates to lipoxygenase. Particulars: background statement; cited from earlier work.
In test [2] the test system is arachidonic acid lipoxygenase oxidation product 5-HETE. Briefly: inhibition of 5-HETE synthesis by rat glycogen-elicited polymorphonuclear leukocytes. It is filed as cell-based, rat (Wistar). Particulars: Leukocyte; rat PMN, A23187 10 μM, [14C] arachidonic acid; read-out: 50% Inhibitory Concentration of (IC50) 5-HETE. The protocol:
The assay of this Example measures the ability of the compounds of the invention to inhibit the synthesis of 5-HETE by rat glycogen-elicited polymorphonuclear leukocytes.
The assay is carried out as follows:
(§1) Peritoneal PMN are obtained from female Wistar rats (150-250 g) that received an i.p. injection of 6% glycogen (10 ml). After 24 hours, rats are killed by CO2 asphyxiation and peritoneal cells are harvested by peritoneal lavage using Ca^++ and Mg^++ free Hanks' balanced salt solution (HBSS). The peritoneal exudate is centrifuged at 400 g for 10 minutes. After centrifugation, the lavaged fluid is removed and the cell pellet is resuspended in HBSS containing Ca^++ and Mg^++ and 10 mM L-cysteine at a concentration of 2×10^7 cells/ml. To 1 ml portions of cell suspension, test drugs or vehicle are added and incubated at 37° C. for 10 minutes. Following this preincubation, the calcium ionophore (10 μM), A23187, is added together with 0.5 μCi [^14 C] arachidonic acid and further incubated for 10 minutes. The reaction is stopped by the addition of ice cold water (3 ml) and acidifying to pH 3.5. Lipoxygenase products are then extracted twice into diethyl ether. The pooled ether extracts are evaporated to dryness under nitrogen and the residue is redissolved in a small volume of methanol and spotted on aluminum backed pre-coated thin layer chromatographic plates. The samples are then co-chromatographed with authentic reference 5-HETE, in the solvent system--hexane:ether:acetic acid (50:50:3). After chromatography, the areas associated with 5-HETE standard are identified by autoradiography, cut out and quantitated by liquid scintillation.
(§2) Results are expressed as % inhibition of [^14 C]5-HETE synthesis. [formula]

The next test relates to cyclooxygenase. The settings on record: background statement; cited from earlier work.
Test [3] relates to AA-induced mouse ear edema. Briefly: arachidonic acid (AA)-induced murine ear edema test. The format is in vivo, mouse (Swiss Webster). From the text:
(§3) The ability of the compounds of the invention to inhibit the lipoxygenase and cyclooxygenase pathways of arachidonic acid is examined in the in vivo arachidonic acid (AA)-/12-O-tetradecanoylphorbol acetate (TPA)-induced murine ear edema test.
(§4) According to this test, Swiss Webster female mice (Buckshire), approximately 8 weeks old, are placed into plastic boxes in groups of six. Eight groups of mice receive AA topically on the right ear, and another 8 groups receive TPA topically on the right ear. AA and TPA are dissolved in acetone at concentrations of 100 mg/ml and 100 μg/ml respectively. The phlogistics are applied to the right ear by the means of an automatic pipet. Volumes of 10 μl are applied to the inner and outer surfaces of the ear. Each mouse receives either 2 mg/ear AA or 4 μg/ear TPA. The left ear (control) receives acetone delivered in the same manner. Oral and topical dosing regimens are as follows: (1) drugs are given 30 minutes prior to AA treatment, and (2) drugs are given 30 minutes after treatment with TPA.
(§5) Measurements are taken with Oditest calipers, 0-10 mm with 0.01 graduations. The right and left ears are measured after 1 hour AA-induced inflammation and 4 hours after TPA-induced inflammation.
(§6) The difference between right and left ear thickness is calculated and the significance is determined by a one way analysis of variance with Dunnett's comparisons to control (P=0.05). Drug effects are expressed as a percent change from control values: [formula]

The subject of test [4] is acute inflammatory response (carrageenan rat paw edema). The test can be described thus: carrageenan rat paw edema test. It is filed as in vivo, rat (Sprague-Dawley). Particulars: Rattus norvegicus, po, 3 h; perorally, 1 h prior to carrageenan; read-out: ED50, paw edema. How it is done: In this test, male Sprague-Dawley (Charles River) rats weighing 140-180 gm, in groups of 6 animals, are injected subcutaneously in the right paw with 0.1 ml of 1% carrageenan at zero time. Mercury plethysmographic readings (ml) of the paw are made at zero time and 3 hours later. Drugs are suspended or dissolved in 0.5% methylcellulose and given perorally one hour prior to carrageenan. The increase in paw volume (edema in ml) produced by the inflammatory agent, carrageenan, is measured.
Unpaired Student's t-test is used to determine statistical significance.
(In general: In the carrageenan paw model, swelling and tenderness develop within hours.)

Test [5] has as its system arachidonic acid cyclooxygenase oxidation product PGE2. Briefly: inhibition of PGE2 synthesis by rat polymorphonuclear leukocytes. The settings on record: Leukocyte; rat PMN, A23187 10 μM, [14C] arachidonic acid; read-out: 50% Inhibitory Concentration (IC50), PGE2. It is filed as cell-based, rat (Wistar). The protocol: as §1, §2
However, in order to determine cyclooxygenase activity, the samples are cochromatographed with authentic reference PGE2 in the solvent system ethyl acetate:formic acid (80:1) and the upper phase of ethyl acetate:isoctane:acetic acid:water (110:50:20:100). After chromatography, the areas associated with PGE2 standard are identified by autoradiography, cut out and quantitated by liquid scintillation techniques.

Test [6] deals with TPA-induced mouse ear edema. The test can be described thus: 12-O-tetradecanoylphorbol acetate (TPA)-induced murine ear edema test. The format is in vivo, mouse (Swiss Webster).
Source text: as §3, §4, §5, §6

For test [7], the system named is phenylbenzoquinone-induced writhing. The test can be described thus: phenylbenzoquinone-induced writhing test. Particulars: 200 mg/kg; Control = 4.0. It is filed as in vivo, mouse (CF-1). How it is done:
In this procedure, test compound or vehicle is administered at various doses to ten male CF-1 mice, weighing 20-25 g, per dose level. The animals then receive intraperitoneal injection with 0.25 ml of the writhing agonist (a 0.02% solution of benzoquinone) 5 minutes before the beginning of a pre-selected, 10-minute observation period. Typical observation periods include 10 to 20, 25 to 35, 40 to 50 and 55 to 65 minutes following administration of the test compound. The mice are observed during the observation period and the total numbers of writhes are determined for each mouse.

For `O=C1CCN(c2ccccc2)N1` [phenidone, 1-phenyl-3-pyrazolidone, reference compound], the ED50 (usually the dose that gives a 50% effect, or the effect in half of the subjects) was found to be 4.3 mg/kg in test [1]; 84 mg/kg in test [3] (Mus musculus, 1 h, oral); 196 mg/kg in test [4]; 235 mg/kg in test [6] (Mus musculus, 4 h, oral). Further, the “inhibition of lipoxygenase activity” value in the test on lipoxygenase was “inhibitors of both cyclooxygenase and lipoxygenase activity”. For the same compound, the IC50 is 12 µM in test [2] and > 100 µM in test [5]. Moreover, the “inhibition of cyclooxygenase activity” value in the test with cyclooxygenase is “inhibitors of both cyclooxygenase and lipoxygenase activity”. For the same compound, in [3] (topical), the “ED50, AA ear edema” value came to 0.1 mg/ear. The “ED50, TPA ear edema” value in test [6] (topical) came out at 0.6 mg/ear. For the same compound, in [7], the “Mean No. of Writhes” value turned out to be 2.2.
